Source: the kinase profiling compilation of Christmann-Franck et al. (2016)

What was measured:
Assay in all cases: radiometric filter-binding kinase assay, Kinase HotSpot
Conditions in all cases: compound 0.5 µM; ATP 10 µM
MAPK13 (human) = MAPK13 (human) (UniProt O15264)
CDK9 CCNT1 (human) = CDK9 CCNT1 (human) (UniProt P50750+O60563)
CSNK1A1 (human) = CSNK1A1 (human) (UniProt P48729)
PRKCI (human) = PRKCI (human) (UniProt P41743)
STK24 (human) = STK24 (human) (UniProt Q9Y6E0)
GRK4 (human) = GRK4 (human) (UniProt P32298)
STK4 (human) = STK4 (human) (UniProt Q13043)
Sequence of STK4 (human) (Q13043 whole entry, looked up): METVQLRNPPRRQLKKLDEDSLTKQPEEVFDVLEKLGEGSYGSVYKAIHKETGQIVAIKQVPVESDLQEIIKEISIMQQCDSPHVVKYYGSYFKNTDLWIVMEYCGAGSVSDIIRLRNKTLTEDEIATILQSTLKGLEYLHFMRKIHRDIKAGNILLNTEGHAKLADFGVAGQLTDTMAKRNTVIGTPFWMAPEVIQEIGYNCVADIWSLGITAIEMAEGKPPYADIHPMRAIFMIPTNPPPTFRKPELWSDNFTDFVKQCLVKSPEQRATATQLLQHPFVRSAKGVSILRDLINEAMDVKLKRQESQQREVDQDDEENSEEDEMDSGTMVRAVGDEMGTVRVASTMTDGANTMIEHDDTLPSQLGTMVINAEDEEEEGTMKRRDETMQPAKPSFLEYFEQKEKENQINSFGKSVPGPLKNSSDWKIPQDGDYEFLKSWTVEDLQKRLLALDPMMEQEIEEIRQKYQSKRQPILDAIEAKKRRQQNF

CDK4 CCND3 (human) = CDK4 CCND3 (human) (UniProt P30281+P11802)
[1] = target: TYK2 JH1 catalytic (human) (UniProt P29597)
MAPK11 (human) = MAPK11 (human) (UniProt Q15759)
RPS6KA5 KD2 (human) = RPS6KA5 KD2 (human) (UniProt O75582)
ERBB2 (human) = ERBB2 (human) (UniProt P04626)
MAPK3 (human) = MAPK3 (human) (UniProt P27361)
CDK6 CCND3 (human) = CDK6 CCND3 (human) (UniProt P30281+Q00534)
SGK3 (human) = SGK3 (human) (UniProt Q96BR1)
GSK3B (human) = GSK3B (human) (UniProt P49841)
GRK5 (human) = GRK5 (human) (UniProt P34947)
FYN (human) = FYN (human) (UniProt P06241)
AXL (human) = AXL (human) (UniProt P30530)
SGK2 (human) = SGK2 (human) (UniProt Q9HBY8)
FER (human) = FER (human) (UniProt P16591)
GSG2 (human) = GSG2 (human) (UniProt Q8TF76)
MAPK12 (human) = MAPK12 (human) (UniProt P53778)
PBK (human) = PBK (human) (UniProt Q96KB5)
GRK6 (human) = GRK6 (human) (UniProt P43250)
RET (human) = RET (human) (UniProt P07949)
PRKCG (human) = PRKCG (human) (UniProt P05129)
FLT3 (human) = FLT3 (human) (UniProt P36888)
RPS6KA4 KD2 (human) = RPS6KA4 KD2 (human) (UniProt O75676)
RAF1 (human) = RAF1 (human) (UniProt P04049)
CAMK2A (human) = CAMK2A (human) (UniProt Q9UQM7)
PTK2B (human) = PTK2B (human) (UniProt Q14289)
EPHA8 (human) = EPHA8 (human) (UniProt P29322)
Sequence of EPHA8 (human) (P29322 whole entry, looked up): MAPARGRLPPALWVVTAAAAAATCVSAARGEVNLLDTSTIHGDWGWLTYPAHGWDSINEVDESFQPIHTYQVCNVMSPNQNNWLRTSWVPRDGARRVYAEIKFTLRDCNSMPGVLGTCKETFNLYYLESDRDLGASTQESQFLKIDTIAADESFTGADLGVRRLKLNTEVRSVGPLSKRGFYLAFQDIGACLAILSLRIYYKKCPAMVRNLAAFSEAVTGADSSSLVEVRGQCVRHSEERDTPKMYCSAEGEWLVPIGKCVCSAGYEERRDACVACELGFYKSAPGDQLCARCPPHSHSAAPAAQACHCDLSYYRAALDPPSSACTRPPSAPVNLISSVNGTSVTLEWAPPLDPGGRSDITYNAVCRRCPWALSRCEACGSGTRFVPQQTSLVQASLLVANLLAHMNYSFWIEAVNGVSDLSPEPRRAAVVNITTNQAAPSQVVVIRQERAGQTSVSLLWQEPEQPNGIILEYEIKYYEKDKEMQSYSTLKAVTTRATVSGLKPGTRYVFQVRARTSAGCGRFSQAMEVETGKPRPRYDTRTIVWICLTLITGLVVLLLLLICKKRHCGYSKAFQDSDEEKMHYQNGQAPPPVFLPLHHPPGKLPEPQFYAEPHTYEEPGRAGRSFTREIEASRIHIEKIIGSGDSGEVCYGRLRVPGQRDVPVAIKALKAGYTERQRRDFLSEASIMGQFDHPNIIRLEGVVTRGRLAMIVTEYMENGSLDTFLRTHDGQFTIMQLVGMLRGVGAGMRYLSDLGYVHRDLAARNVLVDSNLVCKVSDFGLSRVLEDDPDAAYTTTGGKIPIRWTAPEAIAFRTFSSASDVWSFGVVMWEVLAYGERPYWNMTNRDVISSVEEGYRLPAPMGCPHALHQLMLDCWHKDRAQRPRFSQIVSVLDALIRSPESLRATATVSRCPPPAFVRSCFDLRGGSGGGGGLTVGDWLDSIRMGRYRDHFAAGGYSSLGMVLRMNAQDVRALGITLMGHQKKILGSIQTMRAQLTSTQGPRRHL

CHEK1 (human) = CHEK1 (human) (UniProt O14757)
MAPK14 (human) = MAPK14 (human) (UniProt Q16539)
MET (human) = MET (human) (UniProt P08581)
Sequence of MET (human) (P08581 whole entry, looked up): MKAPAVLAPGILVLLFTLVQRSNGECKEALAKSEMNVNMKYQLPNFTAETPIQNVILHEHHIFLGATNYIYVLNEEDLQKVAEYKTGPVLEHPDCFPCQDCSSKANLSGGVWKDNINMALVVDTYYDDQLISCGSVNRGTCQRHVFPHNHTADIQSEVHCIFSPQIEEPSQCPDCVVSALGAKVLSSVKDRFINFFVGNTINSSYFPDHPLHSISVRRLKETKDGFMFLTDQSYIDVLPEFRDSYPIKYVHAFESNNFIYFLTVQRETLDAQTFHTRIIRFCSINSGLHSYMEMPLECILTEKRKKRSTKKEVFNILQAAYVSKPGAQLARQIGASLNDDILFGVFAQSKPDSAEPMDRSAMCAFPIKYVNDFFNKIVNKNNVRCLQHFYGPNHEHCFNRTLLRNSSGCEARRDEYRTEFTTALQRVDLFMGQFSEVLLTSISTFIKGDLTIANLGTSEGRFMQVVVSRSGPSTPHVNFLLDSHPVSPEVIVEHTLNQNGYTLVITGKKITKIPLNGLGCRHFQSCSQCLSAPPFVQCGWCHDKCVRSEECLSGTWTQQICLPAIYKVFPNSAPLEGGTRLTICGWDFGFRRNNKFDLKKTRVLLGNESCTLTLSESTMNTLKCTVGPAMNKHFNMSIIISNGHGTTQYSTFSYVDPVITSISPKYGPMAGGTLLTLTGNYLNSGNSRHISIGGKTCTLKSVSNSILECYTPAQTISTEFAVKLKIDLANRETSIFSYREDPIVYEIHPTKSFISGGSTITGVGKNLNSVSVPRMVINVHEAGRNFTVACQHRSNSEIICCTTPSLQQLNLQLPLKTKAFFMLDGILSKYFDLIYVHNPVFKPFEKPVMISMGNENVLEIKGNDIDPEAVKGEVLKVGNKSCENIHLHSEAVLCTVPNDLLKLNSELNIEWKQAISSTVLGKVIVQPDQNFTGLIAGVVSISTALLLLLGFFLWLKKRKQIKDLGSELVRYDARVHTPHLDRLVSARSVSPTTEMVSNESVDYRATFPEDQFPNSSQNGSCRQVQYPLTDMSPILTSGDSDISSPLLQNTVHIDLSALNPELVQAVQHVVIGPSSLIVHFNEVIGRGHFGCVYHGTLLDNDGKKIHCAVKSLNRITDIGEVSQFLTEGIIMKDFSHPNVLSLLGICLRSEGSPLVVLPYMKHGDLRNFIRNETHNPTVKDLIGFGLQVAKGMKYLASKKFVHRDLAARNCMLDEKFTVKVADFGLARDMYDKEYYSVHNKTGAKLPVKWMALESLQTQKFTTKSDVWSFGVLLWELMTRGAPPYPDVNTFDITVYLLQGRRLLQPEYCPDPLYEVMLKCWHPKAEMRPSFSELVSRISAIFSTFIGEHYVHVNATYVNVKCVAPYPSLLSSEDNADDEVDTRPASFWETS

PIM3 (human) = PIM3 (human) (UniProt Q86V86)
MARK4 (human) = MARK4 (human) (UniProt Q96L34)
Sequence of MARK4 (human) (Q96L34 whole entry, looked up): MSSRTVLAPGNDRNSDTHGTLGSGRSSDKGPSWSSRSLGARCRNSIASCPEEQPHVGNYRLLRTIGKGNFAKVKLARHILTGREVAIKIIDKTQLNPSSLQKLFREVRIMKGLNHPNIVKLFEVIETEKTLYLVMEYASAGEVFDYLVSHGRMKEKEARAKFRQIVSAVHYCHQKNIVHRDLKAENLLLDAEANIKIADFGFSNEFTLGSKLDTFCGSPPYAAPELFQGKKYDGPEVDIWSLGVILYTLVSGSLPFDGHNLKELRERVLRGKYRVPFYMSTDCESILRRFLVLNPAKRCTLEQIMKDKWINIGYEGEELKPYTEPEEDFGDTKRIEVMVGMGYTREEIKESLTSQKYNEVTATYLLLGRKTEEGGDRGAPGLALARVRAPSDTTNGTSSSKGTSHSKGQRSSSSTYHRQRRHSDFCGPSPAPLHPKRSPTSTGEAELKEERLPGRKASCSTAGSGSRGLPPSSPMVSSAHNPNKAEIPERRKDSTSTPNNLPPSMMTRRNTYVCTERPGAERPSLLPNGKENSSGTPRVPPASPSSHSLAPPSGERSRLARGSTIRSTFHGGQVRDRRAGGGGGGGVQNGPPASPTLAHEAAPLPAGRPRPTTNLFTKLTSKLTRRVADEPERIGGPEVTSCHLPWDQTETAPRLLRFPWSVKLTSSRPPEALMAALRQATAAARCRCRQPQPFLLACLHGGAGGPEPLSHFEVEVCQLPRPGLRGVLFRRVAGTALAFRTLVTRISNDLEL

VRK1 (human) = VRK1 (human) (UniProt Q99986)
MAPK9 (human) = MAPK9 (human) (UniProt P45984)
CDK1 CCNA2 (human) = CDK1 CCNA2 (human) (UniProt P06493+P20248)

Sequence of CDK9 CCNT1 (human) (O60563 whole entry, looked up): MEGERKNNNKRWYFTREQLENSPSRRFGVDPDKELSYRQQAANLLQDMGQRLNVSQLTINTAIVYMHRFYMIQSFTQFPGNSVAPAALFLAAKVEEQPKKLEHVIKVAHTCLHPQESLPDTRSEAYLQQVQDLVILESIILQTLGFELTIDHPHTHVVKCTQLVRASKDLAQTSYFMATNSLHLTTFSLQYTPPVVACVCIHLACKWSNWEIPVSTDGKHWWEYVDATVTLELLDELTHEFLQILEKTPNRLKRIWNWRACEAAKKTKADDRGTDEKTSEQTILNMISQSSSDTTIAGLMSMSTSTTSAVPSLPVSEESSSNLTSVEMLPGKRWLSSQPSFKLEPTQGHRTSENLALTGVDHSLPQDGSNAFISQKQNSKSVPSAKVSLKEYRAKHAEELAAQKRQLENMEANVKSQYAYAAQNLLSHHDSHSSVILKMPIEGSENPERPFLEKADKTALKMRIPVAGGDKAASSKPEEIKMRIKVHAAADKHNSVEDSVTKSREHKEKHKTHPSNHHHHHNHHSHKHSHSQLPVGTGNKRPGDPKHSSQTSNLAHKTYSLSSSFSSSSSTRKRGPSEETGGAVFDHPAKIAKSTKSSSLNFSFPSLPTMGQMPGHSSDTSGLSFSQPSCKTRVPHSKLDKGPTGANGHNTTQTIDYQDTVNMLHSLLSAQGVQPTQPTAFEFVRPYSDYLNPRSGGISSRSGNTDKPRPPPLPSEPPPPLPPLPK
Sequence of CDK9 CCNT1 (human) (P50750 whole entry, looked up): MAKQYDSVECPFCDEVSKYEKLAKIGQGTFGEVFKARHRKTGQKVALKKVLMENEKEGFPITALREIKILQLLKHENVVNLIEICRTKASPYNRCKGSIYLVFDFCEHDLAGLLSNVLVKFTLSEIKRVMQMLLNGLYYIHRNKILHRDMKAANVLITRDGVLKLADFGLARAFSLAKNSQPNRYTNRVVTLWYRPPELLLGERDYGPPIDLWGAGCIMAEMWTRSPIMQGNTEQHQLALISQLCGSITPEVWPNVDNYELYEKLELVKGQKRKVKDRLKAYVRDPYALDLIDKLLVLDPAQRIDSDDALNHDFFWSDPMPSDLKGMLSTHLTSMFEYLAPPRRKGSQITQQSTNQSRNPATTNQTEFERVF
Sequence of CSNK1A1 (human) (P48729 whole entry, looked up): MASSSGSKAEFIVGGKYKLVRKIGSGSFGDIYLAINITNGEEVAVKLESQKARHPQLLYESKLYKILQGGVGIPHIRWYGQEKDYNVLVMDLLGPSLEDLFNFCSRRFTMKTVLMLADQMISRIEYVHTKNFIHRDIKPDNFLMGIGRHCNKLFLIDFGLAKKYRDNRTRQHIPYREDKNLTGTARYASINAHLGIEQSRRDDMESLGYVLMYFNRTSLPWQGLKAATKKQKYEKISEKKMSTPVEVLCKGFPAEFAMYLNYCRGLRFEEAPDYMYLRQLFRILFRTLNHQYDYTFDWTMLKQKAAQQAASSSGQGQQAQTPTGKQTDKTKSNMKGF

## O=c1c(-c2ccc(F)cc2)c(-c2ccncc2)[nH]n1-c1ccc(Cl)cc1
MAPK13 (human)
  residual activity: 102%
CDK9 CCNT1 (human)
  residual activity: 101%
CSNK1A1 (human)
  residual activity: 63.7%
PRKCI (human)
  residual activity: 96.2%
STK24 (human)
  residual activity: 111%
GRK4 (human)
  residual activity: 97.9%
STK4 (human)
  residual activity: 90%
CDK4 CCND3 (human)
  residual activity: 101%
[1]
  residual activity: 90.9%
MAPK11 (human)
  residual activity: 55.9%
RPS6KA5 KD2 (human)
  residual activity: 93.5%
ERBB2 (human)
  residual activity: 103%
MAPK3 (human)
  residual activity: 103%
CDK6 CCND3 (human)
  residual activity: 93.7%
SGK3 (human)
  residual activity: 100%
GSK3B (human)
  residual activity: 91.6%
GRK5 (human)
  residual activity: 90.3%
FYN (human)
  residual activity: 94.8%
AXL (human)
  residual activity: 113%
SGK2 (human)
  residual activity: 94.3%
FER (human)
  residual activity: 94.3%
GSG2 (human)
  residual activity: 96.5%
MAPK12 (human)
  residual activity: 85.2%
PBK (human)
  residual activity: 87.7%
GRK6 (human)
  residual activity: 90.1%
RET (human)
  residual activity: 99.6%
PRKCG (human)
  residual activity: 101%
FLT3 (human)
  residual activity: 92.8%
RPS6KA4 KD2 (human)
  residual activity: 103%
RAF1 (human)
  residual activity: 61.4%
CAMK2A (human)
  residual activity: 86.9%
PTK2B (human)
  residual activity: 91.7%
EPHA8 (human)
  residual activity: 94.4%
CHEK1 (human)
  residual activity: 101%
MAPK14 (human)
  residual activity: 11.2%
MET (human)
  residual activity: 101%
PIM3 (human)
  residual activity: 89.9%
MARK4 (human)
  residual activity: 80%
VRK1 (human)
  residual activity: 92.9%
MAPK9 (human)
  residual activity: 6.07%
CDK1 CCNA2 (human)
  residual activity: 83.1%

## CN[C@@H]1C[C@H]2O[C@@](C)([C@@H]1OC)n1c3ccccc3c3c4c(c5c6ccccc6n2c5c31)C(=O)NC4
CDK9 CCNT1 (human)
  residual activity: 1.38%
STK4 (human)
  residual activity: -0.197%
RPS6KA5 KD2 (human)
  residual activity: 1.24%
FER (human)
  residual activity: 0.816%
RPS6KA4 KD2 (human)
  residual activity: 6.74%
EPHA8 (human)
  residual activity: 25.7%
CHEK1 (human)
  residual activity: 1.63%
MET (human)
  residual activity: 32.7%
MARK4 (human)
  residual activity: -0.0069%

## Nc1ncnc2c1cnn2-c1ccccc1
CDK9 CCNT1 (human)
  residual activity: 109%
CSNK1A1 (human)
  residual activity: 79.8%
PRKCI (human)
  residual activity: 97.3%
STK24 (human)
  residual activity: 96.3%
GRK4 (human)
  residual activity: 106%
STK4 (human)
  residual activity: 96.8%
CDK4 CCND3 (human)
  residual activity: 94%
[1]
  residual activity: 86.7%
MAPK11 (human)
  residual activity: 99.9%
RPS6KA5 KD2 (human)
  residual activity: 89%
ERBB2 (human)
  residual activity: 107%
MAPK3 (human)
  residual activity: 90.1%
CDK6 CCND3 (human)
  residual activity: 92.2%
SGK3 (human)
  residual activity: 92.3%
GSK3B (human)
  residual activity: 91.6%
GRK5 (human)
  residual activity: 104%
FYN (human)
  residual activity: 97.8%
AXL (human)
  residual activity: 110%
SGK2 (human)
  residual activity: 98.4%
FER (human)
  residual activity: 99%
GSG2 (human)
  residual activity: 94.8%
MAPK12 (human)
  residual activity: 90.6%
PBK (human)
  residual activity: 92.4%
GRK6 (human)
  residual activity: 92.3%
RET (human)
  residual activity: 98.2%
PRKCG (human)
  residual activity: 103%
FLT3 (human)
  residual activity: 88.9%
RPS6KA4 KD2 (human)
  residual activity: 106%
RAF1 (human)
  residual activity: 95.4%
CAMK2A (human)
  residual activity: 105%
PTK2B (human)
  residual activity: 108%
EPHA8 (human)
  residual activity: 90.5%
CHEK1 (human)
  residual activity: 92.5%
MAPK14 (human)
  residual activity: 89.2%
MET (human)
  residual activity: 97.1%
PIM3 (human)
  residual activity: 91.4%
MARK4 (human)
  residual activity: 89.7%
VRK1 (human)
  residual activity: 84.4%
MAPK9 (human)
  residual activity: 88.2%
